Here are results for 59 molecules from patent publication US7829063B2, “Development of molecular imaging probes for carbonic anhydrase-IX using click chemistry” (Siemens Medical Solutions USA, Inc., priority 2007, dated 2010).

The assay has as its target T1, CA-IX (Homo sapiens, UniProt Q16790).
T1 construct: His tag (C); purchased R&D Systems Inc. 2188-CA; host or cells: mouse myeloma cell line NS0
The experiment in a line: CA-IX combinatorial library screening, competitive fluorescence-based assay with dansylamide (DNSA). The format is binding. As to conditions: 1 h; Table 1, Libraries 1-3; sample concentrations 100 nM and 1000 nM, DNSA 200 μM; screening at 1 μM; read-out: In Vitro Binding Assay (Library Screening). Here is the method:
General. CA-IX human recombinant enzyme was expressed with a C-terminal His tag in a mouse myeloma cell line, NS0 (R&D Systems Inc., catalog number 2188-CA). The human red blood cells were obtained from Research Blood Components, LLC. All absorbance measurements were performed on a SPECTRA MAX M2 plate reader at 25° C. The LC/MS analyses were performed on an Agilent 1100 series LC/MSD (SL) using a 30×2.1 mm Zorbax C8 column with a Phenomenex C18 pre-column. Compound detection was accomplished by electrospray mass spectroscopy in positive selected ion mode (LC/MS-SIM). The elution solvents were acetonitrile and water, contained 0.05% TFA. Nuclear magnetic resonance (NMR) spectra were obtained on a Bruker AMX 300 MHz spectrometer or a Varian 400. 19F NMR spectra were recorded on a Bruker AMX 282.35 MHz or a Varian 400 spectrometer. The mass spectra were recorded on an Agilent 1100 series LC/MSD with electrospray mass spectroscopic detection. Flash column chromatography was performed on Merck silica gel (40-63 μm) using the solvent system indicated. The radiochemical and chemical purities were analyzed by RP-HPLC.
General Combinatorial Library Screening Protocol for CA-IX
The CA-IX screening assay was employed for testing libraries derived from the various “anchor” molecules, using ethoxzolamide as a positive control. The assay was performed at a substrate (dansylamide, DNSA) concentration of 200 μM, and sample concentrations of 100 nM and 1000 nM, respectively. A modified competitive fluorescence-based assay (A. Jain, S. G. Huang, G. M. Whitesides, J. Am. Chem. Soc. 1994, 116, 5057) was used to measure CA-IX activity. The enzymatic assay was carried out in a 96-well plate. To the wells, deionized water, 40 μL of phosphate buffer (250 mM, pH 7.4), 2.4 μL of CA-IX (17 μM), and 2 μL or 20 μL of inhibitor (concentration of 100 nM or 1000 nM) were added to achieve a final volume of 180 μL. Reactions were initiated by adding 20 μL DNSA (200 μM) to each well and the plate was incubated at 25° C. for 1 hour. The fluorescence intensities from each well of the plate were then read at 460 nm using a plate reader with an excitation wavelength of 290 nm.

Turning to `CCCOC(=O)c1ccc(NC(=O)Cn2cc(-c3ccc(S(N)(=O)=O)cc3)nn2)cc1` [DHK3], the inhibition at 1 µM was less than 40%.

`COC(=O)[C@H](CSCc1ccccc1)NC(=O)Cn1cc(-c2ccc(S(N)(=O)=O)cc2)nn1` [DHK4]: the inhibition at 1 µM is less than 40%.

For `NS(=O)(=O)c1ccc(-c2cn(CCN3CCOCC3)nn2)cc1` [DHK5], the inhibition at 1 µM is less than 40%.

In the case of `NS(=O)(=O)c1ccc(-c2cn(CC(O)CN3C(=O)c4ccccc4C3=O)nn2)cc1` (centres unmarked) [DHK8], the inhibition at 1 µM was less than 40%.

As to `CC(C)[C@@H](C(=O)NCc1cc(F)ccc1F)n1cc(-c2ccc(S(N)(=O)=O)cc2)nn1` [DHK11], the inhibition at 1 µM was less than 40%.

`CC(C)C[C@@H](C(=O)NCc1ccccc1)n1cc(-c2ccc(S(N)(=O)=O)cc2)nn1` [DHK12]: the inhibition at 1 µM was less than 40%.

With `CC(CN(C)C)Cn1cc(-c2ccc(S(N)(=O)=O)cc2)nn1` (centres unmarked) [DHK14], the inhibition at 1 µM was less than 40%.

On to `CC1CCCN(C(=O)C(C(C)C)n2cc(-c3ccc(S(N)(=O)=O)cc3)nn2)C1` (centres unmarked) [DHK15], for which the inhibition at 1 µM was less than 40%.

Take `NS(=O)(=O)c1ccc(-c2cn(Cc3cccc(Br)c3)nn2)cc1` [DHK18]: the inhibition at 1 µM is less than 40%.

Take `Cc1ccc(CNC(=O)[C@@H](C(C)C)n2cc(-c3ccc(S(N)(=O)=O)cc3)nn2)cc1F` [DHK20]: the inhibition at 1 µM was less than 40%.

With `CCOC(=O)c1ccc(Cn2cc(-c3ccc(S(N)(=O)=O)cc3)nn2)cc1` [DHK22], the inhibition at 1 µM was less than 40%.

Regarding `CC(C)[C@H](C(=O)NCc1ccccc1)n1cc(-c2ccc(S(N)(=O)=O)cc2)nn1` [DHK23], the inhibition at 1 µM was less than 40%.

Take `COc1ccc2nc3cc(Cl)ccc3c(NCCCn3cc(-c4ccc(S(N)(=O)=O)cc4)nn3)c2c1` [DHK24]: the inhibition at 1 µM was less than 40%.

On to `Cc1cc(NC(=O)Cn2cc(-c3ccc(S(N)(=O)=O)cc3)nn2)n(C)n1` [DHK26], for which the inhibition at 1 µM is less than 40%.

Consider `NS(=O)(=O)c1ccc(-c2cn(Cc3nc4ccccc4[nH]3)nn2)cc1` [DHK27], for which the inhibition at 1 µM is less than 40%.

For `NS(=O)(=O)c1ccc(C(=O)NCc2cn(CCN3CCOCC3)nn2)cc1` [DHK34], the inhibition at 1 µM was less than 40%.

With `Cc1ccnc(NC(=O)[C@H](Cc2ccccc2)n2cc(CNC(=O)c3ccc(S(N)(=O)=O)cc3)nn2)c1` [DHK36], the inhibition at 1 µM was less than 40%.

Turning to `NS(=O)(=O)c1ccc(C(=O)NCc2cn(-c3cccc(C(=O)NN4CCOCC4)c3)nn2)cc1` [DHK39], the inhibition at 1 µM was less than 40%.

In the case of `CC(C)C(C(=O)NCc1cc(F)ccc1F)n1cc(CNC(=O)c2ccc(S(N)(=O)=O)cc2)nn1` (centres unmarked) [DHK40], the inhibition at 1 µM is less than 40%.

Consider `CC(C)C[C@@H](C(=O)NCc1ccccc1)n1cc(CNC(=O)c2ccc(S(N)(=O)=O)cc2)nn1` [DHK41], for which the inhibition at 1 µM is less than 40%.

As for `CC(CN(C)C)Cn1cc(CNC(=O)c2ccc(S(N)(=O)=O)cc2)nn1` (centres unmarked) [DHK43], the inhibition at 1 µM is less than 40%.

With `CC1CCCN(C(=O)C(C(C)C)n2cc(CNC(=O)c3ccc(S(N)(=O)=O)cc3)nn2)C1` (centres unmarked) [DHK44], the inhibition at 1 µM was less than 40%.

In the case of `Cc1ccc(C)c(CNC(=O)[C@H](Cc2ccccc2)n2cc(CNC(=O)c3ccc(S(N)(=O)=O)cc3)nn2)c1` [DHK45], the inhibition at 1 µM is less than 40%.

As for `NS(=O)(=O)c1ccc(C(=O)NCc2cn(Cc3cccc(Br)c3)nn2)cc1` [DHK47], the inhibition at 1 µM was less than 40%.

For `NS(=O)(=O)c1ccc(C(=O)NCc2cn(Cn3c(=S)sc4ccccc43)nn2)cc1` [DHK48], the inhibition at 1 µM was less than 40%.

With `Cc1ccc(CNC(=O)C(C(C)C)n2cc(CNC(=O)c3ccc(S(N)(=O)=O)cc3)nn2)cc1F` (centres unmarked) [DHK49], the inhibition at 1 µM was less than 40%.

For the molecule `CC(C)[C@@H](C(=O)NC1CCCCC1)n1cc(CNC(=O)c2ccc(S(N)(=O)=O)cc2)nn1` [DHK50], the inhibition at 1 µM is less than 40%.

On to `CCOC(=O)c1ccc(Cn2cc(CNC(=O)c3ccc(S(N)(=O)=O)cc3)nn2)cc1` [DHK51], for which the inhibition at 1 µM was less than 40%.

Turning to `CC(C)[C@@H](C(=O)NCc1ccccc1)n1cc(CNC(=O)c2ccc(S(N)(=O)=O)cc2)nn1` [DHK52], the inhibition at 1 µM is less than 40%.

As for `CC(C)[C@@H](C(=O)NCc1ccco1)n1cc(CNC(=O)c2ccc(S(N)(=O)=O)cc2)nn1` [DHK54], the inhibition at 1 µM is less than 40%.

For the molecule `NS(=O)(=O)c1ccc(C(=O)NCc2cn(Cn3nnc4ccccc43)nn2)cc1` [DHK55], the inhibition at 1 µM was less than 40%.

Consider `COC(=O)C(Cc1ccc(C(=O)O)cc1)n1cc(CNC(=O)c2ccc(S(N)(=O)=O)cc2)nn1` (centres unmarked) [DHK56], for which the inhibition at 1 µM was less than 40%.

On to `CCCOC(=O)c1ccc(NC(=O)Cn2cc(CNC(=O)c3ccc(S(N)(=O)=O)cc3)nn2)cc1` [DHK57], for which the inhibition at 1 µM is less than 40%.

As for `CC(C)C(C(=O)NCCCN1CCOCC1)n1cc(CNC(=O)c2ccc(S(N)(=O)=O)cc2)nn1` (centres unmarked) [DHK58], the inhibition at 1 µM is less than 40%.

`CC(C)(C)c1cc(C(=O)Cn2cc(CNC(=O)c3ccc(S(N)(=O)=O)cc3)nn2)cc(C(C)(C)C)c1O` [DHK59]: the inhibition at 1 µM was less than 40%.

On to `CC(C)[C@@H](C(=O)O)n1cc(CNC(=O)c2ccc(S(N)(=O)=O)cc2)nn1` [DHK60], for which the inhibition at 1 µM is less than 40%.

On to `CC(C)[C@@H](C(=O)Nc1ccc(-c2ccccc2)cc1)n1cc(CNC(=O)c2ccc(S(N)(=O)=O)cc2)nn1` [DHK61], for which the inhibition at 1 µM was less than 40%.

Consider `NS(=O)(=O)c1ccc(-c2cn(CCOc3ccc4ccc(=O)oc4c3)nn2)cc1` [DHK63], for which the inhibition at 1 µM is less than 40%.

Regarding `NS(=O)(=O)c1ccc(-c2cn(CC(=O)n3ncc4ccccc43)nn2)cc1` [DHK65], the inhibition at 1 µM is less than 40%.

In the case of `CC(C)[C@@H](C(=O)O)n1cc(-c2ccc(S(N)(=O)=O)cc2)nn1` [DHK66], the inhibition at 1 µM was less than 40%.

Consider `COC(=O)C(Cc1ccc(C(=O)O)cc1)n1cc(-c2ccc(S(N)(=O)=O)cc2)nn1` (centres unmarked) [DHK67], for which the inhibition at 1 µM is less than 40%.

Regarding `CCCCCC[C@H](O)[C@@H](O)c1ccc(Cn2cc(-c3ccc(S(N)(=O)=O)cc3)nn2)cc1` [DHK70], the inhibition at 1 µM was less than 40%.

As to `NS(=O)(=O)c1ccc(-c2cn(-c3ccnc4cc(Cl)ccc34)nn2)cc1` [DHK71], the inhibition at 1 µM was less than 40%.

As for `C=CC1C[N@@]2CCC1CC2[C@@H](c1ccnc2ccc(OC)cc12)n1cc(-c2ccc(S(N)(=O)=O)cc2)nn1` (some centres unmarked) [DHK72], the inhibition at 1 µM is less than 40%.

In the case of `NS(=O)(=O)c1ccc(-c2cn(CCCCCCO)nn2)cc1` [DHK73], the inhibition at 1 µM is less than 40%.

As to `CC(C)C(C(=O)NCCc1ccsc1)n1cc(-c2ccc(S(N)(=O)=O)cc2)nn1` (centres unmarked) [DHK76], the inhibition at 1 µM was less than 40%.

On to `NS(=O)(=O)c1ccc(-c2cn(CCn3c(=O)[nH]c4ccccc4c3=O)nn2)cc1` [DHK78], for which the inhibition at 1 µM was less than 40%.

In the case of `NS(=O)(=O)c1ccc(-c2cn(C3CCN(C(=O)/C=C/c4ccccc4)CC3)nn2)cc1` [DHK82], the inhibition at 1 µM is less than 40%.

For `CCCCCC[C@H](O)[C@@H](O)c1ccc(Cn2cc(CNC(=O)c3ccc(S(N)(=O)=O)cc3)nn2)cc1` [DHK85], the inhibition at 1 µM is less than 40%.

In the case of `NS(=O)(=O)c1ccc(C(=O)NCc2cn(-c3ccnc4cc(Cl)ccc34)nn2)cc1` [DHK86], the inhibition at 1 µM is less than 40%.

With `C=CC1C[N@@]2CCC1CC2[C@@H](c1ccnc2ccc(OC)cc12)n1cc(CNC(=O)c2ccc(S(N)(=O)=O)cc2)nn1` (some centres unmarked) [DHK87], the inhibition at 1 µM is less than 40%.

For `NS(=O)(=O)c1ccc(C(=O)NCc2cn(CCCCCCO)nn2)cc1` [DHK88], the inhibition at 1 µM is less than 40%.

Consider `NS(=O)(=O)c1ccc(C(=O)NCc2cn(C(c3ccccc3)[C@@H](OC/C=C/c3ccccc3)c3ccccc3)nn2)cc1` (some centres unmarked) [DHK90], for which the inhibition at 1 µM was less than 40%.

As to `CC(C)[C@@H](C(=O)NCCc1ccsc1)n1cc(CNC(=O)c2ccc(S(N)(=O)=O)cc2)nn1` [DHK91], the inhibition at 1 µM was less than 40%.

On to `NS(=O)(=O)c1ccc(C(=O)NCc2cn(CC(=O)NC(Cc3cnc[nH]3)C(=O)O)nn2)cc1` (centres unmarked) [DHK92], for which the inhibition at 1 µM is less than 40%.

`NS(=O)(=O)c1ccc(C(=O)NCc2cn(CCn3c(=O)[nH]c4ccccc4c3=O)nn2)cc1` [DHK93]: the inhibition at 1 µM was less than 40%.

Take `NS(=O)(=O)c1ccc(C(=O)NCc2cn(CC(=O)N3CCN(c4cc(Cl)cc(Cl)c4)CC3)nn2)cc1` [DHK94]: the inhibition at 1 µM is less than 40%.

Consider `NCCCn1cc(CNC(=O)c2ccc(S(N)(=O)=O)cc2)nn1` [DHK95], for which the inhibition at 1 µM is less than 40%.

In the case of `NS(=O)(=O)c1ccc(C(=O)NCc2cn(C3CCN(S(=O)(=O)/C=C/c4ccccc4)CC3)nn2)cc1` [DHK96], the inhibition at 1 µM is less than 40%.
